# Read-outs that look alike come from different tables or passages of the source.
# Tests used:
# Assay in all cases: Mode MIC of antibiotic and PA 1,1-Dioxide alone and in combination
# Type in all cases: cell-based
# Haemophilus influenzae = conditions: for MIC: Haemophilus influenzae, 18 h, alone
# From the text: (§1) As indicated hereinbefore, the compounds of formula I, wherein R^1 is hydrogen or an ester-forming residue readily hydrolyzable in vivo, are antibacterial agents of medium potency. […] The procedure which is followed is the one recommended by the International Collaborative Study on Antibiotic Sensitivity Testing (Ericcson and Sherris, Acta. Pathologica et Microbiologia Scandinav, Supp. 217, Section B: 64-68 [1971]), and employs brain heart infusion (BHI) agar and the inocula replicating device. Overnight growth tubes are diluted 100 fold for use as the standard inoculum (20,000-10,000 cells in approximately 0.002 ml. are placed on the agar surface; 20 ml. of BHI agar/dish). Twelve 2 fold dilutions of the test compound are employed, with initial concentration of the test drug being 200 mcg./ml. Single colonies are disregarded when reading plates after 18 hrs. at 37° C. The susceptibility (MIC) of the test organism is accepted as the lowest concentration of compound capable of producing complete inhibition of growth as judged by the naked eye.
# (§2) The manner in which the said compounds of the formula I increase the effectiveness of a β-lactam antibiotic can be appreciated by reference to experiments in which the MIC of a given antibiotic alone, and a compound of the formula I wherein R^1 is hydrogen, alone, are measured. These MIC's are then compared with the MIC values obtained with a combination of the given antibiotic and the compound of the formula I wherein R^1 is hydrogen. […] The MIC values of combinations are measured using the method described by Barry and Sabath in "Manual of Clinical Microbiology", edited by Lenette, Spaulding and Truant, 2nd Edition, 1974, American Society for Microbiology.
# (§3) From Table II, it can be seen that against 19 ampicillin-resistant strains of Staphylococcus aureus, the mode MIC of ampicillin, and of penicillanic acid 1,1-dioxide, is 200 mcg./ml. […] The other entries in Table II show enhancement of the antibacterial effectiveness of ampicillin against 26 ampicillin resistant strains of Haemophilus influenzae, 18 ampicillin resistant strains of Klebsiella pneumoniae, and 15 strains of the anerobe Bacteroides fragilis. Tables III, IV and V show enhancement of the antibacterial potency of benzylpenicillin (penicillin G) carbenicillin (α-carboxybenzylpenicillin) and cefazolin, respectively, against strains of S. aureus, H. influenzae, K. pneumoniae and Bacteroides fragilis.
# Bacteroides fragilis = conditions: for MIC: Bacteroides fragilis, 18 h, read-out: Mode MIC alone
# From the text: as §1, §2, §3
# Klebsiella pneumoniae = conditions: for MIC: Klebsiella pneumoniae, 18 h, read-out: Mode MIC alone
# From the text: as §1, §2, §3
# Staphylococcus aureus = conditions: for MIC: Staphylococcus aureus, 18 h, read-out: Mode MIC alone
# From the text: as §1, §2, §3
structure (smiles),measurement,setting,value
"CC1(C)S[C@@H]2[C@H](NC(=O)[C@H](N)c3ccccc3)C(=O)N2[C@H]1C(=O)O [ampicillin, reference compound]",MIC,"Haemophilus influenzae; Table II, 26 ampicillin resistant strains, read-out: Mode MIC alone",200 mg/L
same,"Mode MIC's of ampicillin and PA 1,1-Dioxide in combination","Haemophilus influenzae; Table II, 26 ampicillin resistant strains, ampicillin + PA 1,1-Dioxide in combination",0.78 mg/L
same,MIC,"Bacteroides fragilis; Table II, 15 strains, alone",50 mg/L
same,"Mode MIC's of ampicillin and PA 1,1-Dioxide in combination","Bacteroides fragilis; Table II, 15 strains, ampicillin + PA 1,1-Dioxide in combination",1.56 mg/L
same,MIC,"Klebsiella pneumoniae; Table II, 18 ampicillin resistant strains, alone",> 400 mg/L
same,"Mode MIC's of ampicillin and PA 1,1-Dioxide in combination","Klebsiella pneumoniae; Table II, 18 ampicillin resistant strains, ampicillin + PA 1,1-Dioxide in combination",6.25 mg/L
same,MIC,"Staphylococcus aureus; Table II, 19 ampicillin-resistant strains, alone",200 mg/L
same,"Mode MIC's of ampicillin and PA 1,1-Dioxide in combination","Staphylococcus aureus; Table II, 19 ampicillin-resistant strains, ampicillin + PA 1,1-Dioxide in combination",1.56 mg/L
"CC1(C)S[C@@H]2[C@H](NC(=O)C(C(=O)O)c3ccccc3)C(=O)N2[C@H]1C(=O)O (stereo partly drawn) [carbenicillin, α-carboxybenzylpenicillin, reference compound]",MIC,"Haemophilus influenzae; Table IV, 25 strains, read-out: Mode MIC alone",6.25 mg/L
same,"Mode MIC's of carbenicillin and PA 1,1-Dioxide in combination","Haemophilus influenzae; Table IV, 25 strains, carbenicillin + PA 1,1-Dioxide in combination",0.39 mg/L
same,MIC,"Bacteroides fragilis; Table IV, 15 strains, alone",50 mg/L
same,"Mode MIC's of carbenicillin and PA 1,1-Dioxide in combination","Bacteroides fragilis; Table IV, 15 strains, carbenicillin + PA 1,1-Dioxide in combination",3.12 mg/L
same,MIC,"Klebsiella pneumoniae; Table IV, 16 strains, alone",> 400 mg/L
same,"Mode MIC's of carbenicillin and PA 1,1-Dioxide in combination","Klebsiella pneumoniae; Table IV, 16 strains, carbenicillin + PA 1,1-Dioxide in combination",50 mg/L
same,MIC,"Staphylococcus aureus; Table IV, 20 strains, alone",12.5 mg/L
same,"Mode MIC's of carbenicillin and PA 1,1-Dioxide in combination","Staphylococcus aureus; Table IV, 20 strains, carbenicillin + PA 1,1-Dioxide in combination",6.25 mg/L
"CC1(C)S[C@@H]2[C@H](NC(=O)Cc3ccccc3)C(=O)N2[C@H]1C(=O)O [penicillin G, reference compound]",MIC,"Haemophilus influenzae; read-out: Mode MIC alone, Table III, 25 strains",50 mg/L
same,"Mode MIC's of penicillin G and PA 1,1-Dioxide in combination","Haemophilus influenzae; Table III, 25 strains, penicillin G + PA 1,1-Dioxide in combination",0.78 mg/L
same,MIC,Bacteroides fragilis,25 mg/L
same,"Mode MIC's of penicillin G and PA 1,1-Dioxide in combination","Bacteroides fragilis; Table III, 15 strains, penicillin G + PA 1,1-Dioxide in combination",1.56 mg/L
same,MIC,Klebsiella pneumoniae,400 mg/L
same,"Mode MIC's of penicillin G and PA 1,1-Dioxide in combination","Klebsiella pneumoniae; Table III, 24 strains, penicillin G + PA 1,1-Dioxide in combination",25 mg/L
same,MIC,Staphylococcus aureus,200 mg/L
same,"Mode MIC's of penicillin G and PA 1,1-Dioxide in combination","Staphylococcus aureus; Table III, 20 strains, penicillin G + PA 1,1-Dioxide in combination",3.12 mg/L
